Target: T1, hRpn13 (Homo sapiens, UniProt Q16186)
T1 construct: gene ADRM1; hRpn13 Pru (1–150)
Assay: ITC; NMR structure; 2D NMR; LC-MS adduct; tryptophan quenching
Format: binding

T1 sequence (Q16186 1-150): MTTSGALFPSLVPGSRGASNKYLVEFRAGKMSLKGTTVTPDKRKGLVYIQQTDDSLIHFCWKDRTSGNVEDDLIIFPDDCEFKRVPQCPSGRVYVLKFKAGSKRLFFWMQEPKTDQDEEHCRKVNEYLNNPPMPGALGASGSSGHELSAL

Molecule `Cc1ccc(C(=O)Nc2cccc(/C=C(\C#N)C(=O)Nc3ccccc3C(=O)O)c2)cc1` [XL5] has a Kd of 1480 ± 520 nM.
